Measured values as given in patent US10004701B2, “Methods and compositions for treating infection” (UNIVERSITY OF ROCHESTER, priority 2012, dated 2018).
Read-outs that look alike come from different tables or passages of the source.

Assays:
Assay in all cases: AK assay 384-well format, Prestwick library screening
E. faecium = format: cell-based, Enterococcus faecium; details: 50 μM final drug concentration; for fold induction at 50 µM: Enterococcus faecium, 3 h
[1] = test system: S. aureus strain USA300-0114; format: cell-based, Staphylococcus aureus; details: 50 μM final drug concentration; for fold induction at 50 µM: Staphylococcus aureus, USA300, 3 h
K. pneumoniae = format: cell-based, Klebsiella pneumoniae; details: 50 μM final drug concentration; for fold induction at 50 µM: Klebsiella pneumoniae, 3 h
[2] = test system: A. baumannii strain 98-37-09; format: cell-based, Acinetobacter baumannii; details: 50 μM final drug concentration; for fold induction at 50 µM: Acinetobacter baumannii, 983709, 3 h
P. aeruginosa = format: cell-based, Pseudomonas aeruginosa; details: 50 μM final drug concentration; for fold induction at 50 µM: Pseudomonas aeruginosa, 3 h
E. cloacae = format: cell-based, Enterobacter cloacae; details: 50 μM final drug concentration; for fold induction at 50 µM: Enterobacter cloacae, 3 h
E. coli = format: cell-based, Escherichia coli; details: 50 μM final drug concentration; for fold induction at 50 µM: Escherichia coli, 3 h
[3] = planktonic, cutoff for positive-scoring molecules 3-fold increase

Compound: O=c1[nH]c2ccccc2n1CCCN1CCC(n2c(=O)[nH]c3cc(Cl)ccc32)CC1 [Domperidone]
- fold induction at 50 µM (E. faecium; planktonic E. faecium, cutoff for positive-scoring molecules 3-fold increase, read-out: AK-based Prestwick Library Screening Results, E. faecium (increase in extracellular AK activity)): 0.9
- fold induction at 50 µM ([1]; planktonic S. aureus, cutoff for positive-scoring molecules 3-fold increase, read-out: AK-based Prestwick Library Screening Results, S. aureus (increase in extracellular AK activity)): 0.8
- fold induction at 50 µM (K. pneumoniae; planktonic K. pneumoniae, cutoff for positive-scoring molecules 3-fold increase, read-out: AK-based Prestwick Library Screening Results, K. pneumoniae (increase in extracellular AK activity)): 0.6
- fold induction at 50 µM ([2]; planktonic A. baumannii, cutoff for positive-scoring molecules 3-fold increase, read-out: AK-based Prestwick Library Screening Results, A. baumannii (increase in extracellular AK activity)): 0.7
- fold induction at 50 µM (P. aeruginosa; planktonic P. aeruginosa, cutoff for positive-scoring molecules 3-fold increase, read-out: AK-based Prestwick Library Screening Results, P. aeruginosa (increase in extracellular AK activity)): 0.6
- fold induction at 50 µM (E. cloacae; planktonic E. cloacae, cutoff for positive-scoring molecules 3-fold increase, read-out: AK-based Prestwick Library Screening Results, E. cloacae (increase in extracellular AK activity)): 0.8
- fold induction at 50 µM (E. coli; planktonic E. coli, cutoff for positive-scoring molecules 3-fold increase, read-out: AK-based Prestwick Library Screening Results, E. coli (increase in extracellular AK activity)): 0.6

Compound: Dihydroergotamine tartrate
- AK-based Prestwick Library Screening Results: E. faecium (increase in extracellular AK activity) (E. faecium; planktonic E. faecium, 384-well, cutoff for positive-scoring molecules 3-fold increase): 1.0
- AK-based Prestwick Library Screening Results: S. aureus (increase in extracellular AK activity) ([1]; planktonic S. aureus, 384-well, cutoff for positive-scoring molecules 3-fold increase): 1.0
- AK-based Prestwick Library Screening Results: K. pneumoniae (increase in extracellular AK activity) (K. pneumoniae; planktonic K. pneumoniae, 384-well, cutoff for positive-scoring molecules 3-fold increase): 0.9
- AK-based Prestwick Library Screening Results: A. baumannii (increase in extracellular AK activity) ([2]; planktonic A. baumannii, 384-well, cutoff for positive-scoring molecules 3-fold increase): 1.5
- AK-based Prestwick Library Screening Results: P. aeruginosa (increase in extracellular AK activity) (P. aeruginosa; planktonic P. aeruginosa, 384-well, cutoff for positive-scoring molecules 3-fold increase): 1.2
- AK-based Prestwick Library Screening Results: E. cloacae (increase in extracellular AK activity) (E. cloacae; planktonic E. cloacae, 384-well, cutoff for positive-scoring molecules 3-fold increase): 1.3
- AK-based Prestwick Library Screening Results: E. coli (increase in extracellular AK activity) (E. coli; planktonic E. coli, 384-well, […]): 1.3

Compound: COc1ccccc1N1CCN(CCCCNC(=O)c2ccc3ccccc3c2)CC1 [DO 897/99]
- AK-based Prestwick Library Screening Results, E. faecium (fold increase in extracellular AK activity) (E. faecium; planktonic, […]): 1.0
- AK-based Prestwick Library Screening Results, S. aureus (fold increase in extracellular AK activity) ([1]; planktonic, […]): 1.1
- AK-based Prestwick Library Screening Results, K. pneumoniae (fold increase in extracellular AK activity) (K. pneumoniae; planktonic, […]): 1.3
- AK-based Prestwick Library Screening Results, A. baumannii (fold increase in extracellular AK activity) ([2]; planktonic, […]): 1.2
- AK-based Prestwick Library Screening Results, P. aeruginosa (fold increase in extracellular AK activity) (P. aeruginosa; planktonic, […]): 1.3
- AK-based Prestwick Library Screening Results, E. cloacae (fold increase in extracellular AK activity) (E. cloacae; planktonic, […]): 1.7
- AK-based Prestwick Library Screening Results, E. coli (fold increase in extracellular AK activity) (E. coli; planktonic, […]): 1.4

Compound: CC(=O)OCC(=O)[C@@]12OC(C)(C)O[C@@H]1C[C@H]1[C@@H]3C[C@H](F)C4=CC(=O)C=C[C@]4(C)[C@@]3(F)[C@@H](O)C[C@@]12C [Fluocinonide]
- fold induction at 50 µM (E. faecium; cutoff for positive-scoring molecules 3-fold increase, read-out: AK-based Prestwick Library Screening Results, E. faecium (fold increase in extracellular AK activity)): 1
- fold induction at 50 µM ([1]; cutoff for positive-scoring molecules 3-fold increase, read-out: AK-based Prestwick Library Screening Results, S. aureus (fold increase in extracellular AK activity)): 1.1
- fold induction at 50 µM (K. pneumoniae; cutoff for positive-scoring molecules 3-fold increase, read-out: AK-based Prestwick Library Screening Results, K. pneumoniae (fold increase in extracellular AK activity)): 0.9
- fold induction at 50 µM ([2]; cutoff for positive-scoring molecules 3-fold increase, read-out: AK-based Prestwick Library Screening Results, A. baumannii (fold increase in extracellular AK activity)): 0.9
- fold induction at 50 µM (P. aeruginosa; cutoff for positive-scoring molecules 3-fold increase, read-out: AK-based Prestwick Library Screening Results, P. aeruginosa (fold increase in extracellular AK activity)): 1.2
- fold induction at 50 µM (E. cloacae; cutoff for positive-scoring molecules 3-fold increase, read-out: AK-based Prestwick Library Screening Results, E. cloacae (fold increase in extracellular AK activity)): 1.7
- fold induction at 50 µM (E. coli; cutoff for positive-scoring molecules 3-fold increase, read-out: AK-based Prestwick Library Screening Results, E. coli (fold increase in extracellular AK activity)): 1

Compound: CO[C@]12C[C@@H](COC(=O)c3cncc(Br)c3)CN(C)[C@@H]1Cc1cn(C)c3cccc2c13 [Nicergoline]
- fold induction at 50 µM (E. faecium; planktonic E. faecium, 384-well, cutoff for positive-scoring molecules 3-fold increase, read-out: AK-based Prestwick Library Screening Results: E. faecium (increase in extracellular AK activity)): 1
- fold induction at 50 µM ([1]; planktonic S. aureus, 384-well, cutoff for positive-scoring molecules 3-fold increase, read-out: AK-based Prestwick Library Screening Results: S. aureus (increase in extracellular AK activity)): 1.4
- fold induction at 50 µM (K. pneumoniae; planktonic K. pneumoniae, 384-well, cutoff for positive-scoring molecules 3-fold increase, read-out: AK-based Prestwick Library Screening Results: K. pneumoniae (increase in extracellular AK activity)): 1
- fold induction at 50 µM ([2]; planktonic A. baumannii, 384-well, cutoff for positive-scoring molecules 3-fold increase, read-out: AK-based Prestwick Library Screening Results: A. baumannii (increase in extracellular AK activity)): 1.4
- fold induction at 50 µM (P. aeruginosa; planktonic P. aeruginosa, 384-well, cutoff for positive-scoring molecules 3-fold increase, read-out: AK-based Prestwick Library Screening Results: P. aeruginosa (increase in extracellular AK activity)): 1.2
- fold induction at 50 µM (E. cloacae; planktonic E. cloacae, 384-well, cutoff for positive-scoring molecules 3-fold increase, read-out: AK-based Prestwick Library Screening Results: E. cloacae (increase in extracellular AK activity)): 1.2
- fold induction at 50 µM (E. coli; planktonic E. coli, 384-well, cutoff for positive-scoring molecules 3-fold increase, read-out: AK-based Prestwick Library Screening Results: E. coli (increase in extracellular AK activity)): 1.3

Compound: C=C[C@]12CN(C)[C@@H]3[C@H]4CO[C@H](C[C@H]41)[C@]1(C(=O)Nc4ccccc41)[C@@H]32 [Gelsemine]
- fold induction at 50 µM (E. faecium; planktonic, […], read-out: AK-based Prestwick Library Screening Results, E. faecium (fold increase in extracellular AK activity)): 0.9
- fold induction at 50 µM ([1]; planktonic, […], read-out: AK-based Prestwick Library Screening Results, S. aureus (fold increase in extracellular AK activity)): 0.7
- fold induction at 50 µM (K. pneumoniae; planktonic, […], read-out: AK-based Prestwick Library Screening Results, K. pneumoniae (fold increase in extracellular AK activity)): 0.7
- fold induction at 50 µM ([2]; planktonic, […], read-out: AK-based Prestwick Library Screening Results, A. baumannii (fold increase in extracellular AK activity)): 0.7
- fold induction at 50 µM (P. aeruginosa; planktonic, […], read-out: AK-based Prestwick Library Screening Results, P. aeruginosa (fold increase in extracellular AK activity)): 0.9
- fold induction at 50 µM (E. cloacae; planktonic, […], read-out: AK-based Prestwick Library Screening Results, E. cloacae (fold increase in extracellular AK activity)): 0.9
- fold induction at 50 µM (E. coli; planktonic, […], read-out: AK-based Prestwick Library Screening Results, E. coli (fold increase in extracellular AK activity)): 0.9

Compound: C[C@@]1(O)CCOC(=O)C1 [Mevalonic-D, L acid lactone]
- AK-based Prestwick Library Screening Results, E. faecium (fold increase in extracellular AK activity) (E. faecium; [3]): 1.0
- AK-based Prestwick Library Screening Results, S. aureus (fold increase in extracellular AK activity) [1, 3]: 0.9
- AK-based Prestwick Library Screening Results, K. pneumoniae (fold increase in extracellular AK activity) (K. pneumoniae; [3]): 0.8
- AK-based Prestwick Library Screening Results, A. baumannii (fold increase in extracellular AK activity) [2, 3]: 0.9
- AK-based Prestwick Library Screening Results, P. aeruginosa (fold increase in extracellular AK activity) (P. aeruginosa; [3]): 0.8
- AK-based Prestwick Library Screening Results, E. cloacae (fold increase in extracellular AK activity) (E. cloacae; [3]): 0.9
- AK-based Prestwick Library Screening Results, E. coli (fold increase in extracellular AK activity) (E. coli; [3]): 1.0

Compound: CCCCc1ccc(C(=O)O)nc1 [Fusaric acid]
- fold induction at 50 µM (E. faecium; planktonic E. faecium, […], read-out: AK-based Prestwick Library Screening Results, E. faecium (increase in extracellular AK activity)): 1.1
- fold induction at 50 µM ([1]; planktonic S. aureus, […], read-out: AK-based Prestwick Library Screening Results, S. aureus (increase in extracellular AK activity)): 0.9
- fold induction at 50 µM (K. pneumoniae; planktonic K. pneumoniae, […], read-out: AK-based Prestwick Library Screening Results, K. pneumoniae (increase in extracellular AK activity)): 0.9
- fold induction at 50 µM ([2]; planktonic A. baumannii, […], read-out: AK-based Prestwick Library Screening Results, A. baumannii (increase in extracellular AK activity)): 0.9
- fold induction at 50 µM (P. aeruginosa; planktonic P. aeruginosa, […], read-out: AK-based Prestwick Library Screening Results, P. aeruginosa (increase in extracellular AK activity)): 1.1
- fold induction at 50 µM (E. cloacae; planktonic E. cloacae, […], read-out: AK-based Prestwick Library Screening Results, E. cloacae (increase in extracellular AK activity)): 1.2
- fold induction at 50 µM (E. coli; planktonic E. coli, […], read-out: AK-based Prestwick Library Screening Results, E. coli (increase in extracellular AK activity)): 0.8
